Entries after “also recorded” stand apart in the source; their conditions may differ. Where two headings read alike, the source gives them in different places.
What was measured:
[1] = tested on: Staphylococcus epidermidis; test: Anti-microbial performance of chelators: growth inhibition in semi-synthetic medium by optical density; assay type: cell-based; conditions: for "micro-molar active" criterion (significant inhibition of growth, at least 30%, at 3×10^−6 mol.dm^−3 or less): S. epidermidis; for Inhibition of growth (%): chelator 3×10^−6 mol.dm^−3, 16 hours at 37° C., optical density at 600 nm vs control medium
Method: An axillary isolate of Staphylococcus epidermidis was grown overnight in 100 ml of tryptone soy broth (TSB, Oxoid Ltd). 10 ml of this culture was taken and subjected to centrifugation. The separated cells were re-suspended in 10 ml of phosphate buffered saline and the centrifugation procedure repeated. The washed cells were re-suspended in 10 ml of phosphate buffered saline to give the inoculum. 100 μl of the inoculum was added to 100 ml of semi-synthetic medium (SSM) containing (NH4)2SO4 (0.066 g), MgSO4.7H2O (0.012 g), KCl (0.1 g), KH2PO4 (0.27 g), Na2HPO4 (1.43 g), thiamin (0.1 mg), biotin (0.05 mg), Peptone P (0.05 g), and glucose (2.0 mmole) which had been previously sterilised by autoclaving at 121° C. for 20 minutes. The pH of the SSM was adjusted to 6.7 with HCl after sterilisation, prior to addition of the inoculum. This control medium was utilised in all of the in vitro inhibition studies. The chelator-containing test media were prepared in a similar manner, the chelator being introduced at a concentration of 3×10^−6 mol.dm^−3 before the pH adjustment with HCl.
100 μl of the S. epidermidis inoculum was introduced into the control medium and into test media containing the chelators indicated in Table 2. The cultures were inoculated at 37° C. (with agitation at 200 rpm) for 16 hours, and the optical density of the cultures measured at 600 nm to determine the extent of bacterial growth. By comparison of the optical density of the culture in the presence of chelating agent, to that of the control, the percentage inhibition of growth was established. (Optical density measurements were made on 1 in 4 dilutions of the cultures with 0.9% (w/v) saline, using 1 cm path length cuvettes, on a Pharmacia Biotech Ultrospec 200 Spectrophotometer.)

relevant micro-organism = conditions: cited from earlier work

Row | Compound | "micro-molar active" criterion (significant inhibition of growth, at least 30%, at 3×10^−6 mol.dm^−3 or less) [1] | Inhibition of growth (%) [1] [%] | MIC (relevant micro-organism; stated by contrast, no source given) | MIC (relevant micro-organism; literature values)
1 | O=C(O)CN(CC(=O)O)[C@@H]1CCCC[C@H]1N(CC(=O)O)CC(=O)O (relative stereo) [CDTA, trans-1,2-diaminocyclohexane-N,N,N′,N′-tetraacetic acid] | exclude; also recorded: fail this criterion | 12.3 |  | 
2 | O=C(O)CN(CCN(CC(=O)O)CC(=O)O)CCN(CC(=O)O)CC(=O)O [DTPA, diethylenetriaminepentaacetic acid] | capable of achieving significant inhibition; also recorded: meet the criterion | 56.5 |  | 
3 | O=C(O)CN(CCN(CC(=O)O)CC(=O)O)CC(=O)O [EDTA, ethylenediaminetetraacetic acid] | exclude; also recorded: fail this criterion | 0 |  | 
4 | O=C(O)CN(CCN(CCN(CC(=O)O)CC(=O)O)CC(=O)O)CCN(CC(=O)O)CC(=O)O [TTHA, triethylenetetraaminehexaacetic acid] | capable of achieving significant inhibition; also recorded: meet the criterion | 56.3 |  | 
5 | CCO [ethanol] |  |  | greater than 1 mg.ml^−1 | 
6 | CC(C)=CCCC(C)=CCCC(C)=CCO [farnesol, 3,7,11-trimethyldodeca-2,6,10-trienol] |  |  |  | ca. 25 μg.ml^−1
7 | Oc1cc(Cl)ccc1Oc1ccc(Cl)cc1Cl [triclosan, 2′,4,4′-trichloro,2-hydroxy-diphenyl ether] |  |  |  | 0.01 to 10 µg/mL

Reference: patent US6893630B2, “Anti-microbial antiperspirant products” (Unilever Home & Personal Care USA, division of Conopco, Inc., priority 2000, dated 2005)
